Reference: PubChem BioAssay (NCI)
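Where inhibition never reached the appropriate level, the endpoint shown equals the highest concentration tested. Otherwise, values were interpolated linearly from a five-concentration, 48-hour dose response in 96-well plates. TGI: concentration producing complete growth inhibition.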

Legend:
Test in all cases: NCI tumour cell line growth inhibition, 48 h
[1] = tested on: SNB-19 CNS
[2] = tested on: SF-268 CNS
[3] = tested on: MDA-N
[4] = tested on: HCT-116 colon
[5] = tested on: RPMI-8226 leukemia
[6] = tested on: MCF7 breast
[7] = tested on: BT-549 breast
[8] = tested on: NCI-H23 lung
[9] = tested on: OVCAR-3 ovarian
[10] = tested on: M14 melanoma
[11] = tested on: OVCAR-8 ovarian
[12] = tested on: NCI-H460 lung
[13] = tested on: SW-620 colon
[14] = tested on: COLO 205 colon
[15] = tested on: 786-0 renal
[16] = tested on: OVCAR-4 ovarian
[17] = tested on: TK-10 renal
[18] = tested on: MALME-3M melanoma
[19] = tested on: SK-MEL-5 melanoma
[20] = tested on: IGROV1 ovarian
[21] = tested on: SK-MEL-2 melanoma
[22] = tested on: MOLT-4 leukemia
[23] = tested on: SN12C renal
[24] = tested on: MDA-MB-435
[25] = tested on: NCI-H522 lung
[26] = tested on: ACHN renal
[27] = tested on: PC-3 prostate
[28] = tested on: NCI-H226 lung
[29] = tested on: OVCAR-5 ovarian
[30] = tested on: EKVX NSCLC
[31] = tested on: MDA-MB-231 breast
[32] = tested on: A549 NSCLC
[33] = tested on: A498 renal
[34] = tested on: CAKI-1 renal
[35] = tested on: HOP-92 NSCLC
[36] = tested on: CCRF-CEM leukemia
[37] = tested on: HCT-15 colon
[38] = tested on: SK-MEL-28 melanoma
[39] = tested on: U251 CNS
[40] = tested on: LOX IMVI melanoma
[41] = tested on: HCC-2998 colon
[42] = tested on: NCI/ADR-RES ovarian
[43] = tested on: HOP-62 NSCLC
[44] = tested on: UO-31 renal
[45] = tested on: K-562 leukemia
[46] = tested on: HT29 colon
[47] = tested on: KM12 colon
[48] = tested on: T-47D breast
[49] = tested on: SF-295 CNS
[50] = tested on: SK-OV-3 ovarian
[51] = tested on: DU-145 prostate
[52] = tested on: UACC-62 melanoma
[53] = tested on: RXF 393 renal
[54] = tested on: HS 578T breast
[55] = tested on: UACC-257 melanoma
[56] = tested on: HL-60(TB) leukemia
[57] = tested on: SF-539 CNS
[58] = tested on: SNB-75 CNS

CCN(CC)CCn1ncc2c(N)ncnc21
TGI [1]: > 100 µM
TGI [2]: > 100 µM
TGI [3]: > 100 µM
TGI [4]: > 100 µM
TGI [5]: > 100 µM
TGI [6]: > 100 µM
TGI [7]: > 100 µM
TGI [8]: > 100 µM
TGI [9]: > 100 µM
TGI [10]: > 100 µM
TGI [11]: > 100 µM
TGI [12]: > 100 µM
TGI [13]: > 100 µM
TGI [14]: > 100 µM
TGI [15]: > 100 µM
TGI [16]: > 100 µM
TGI [17]: > 100 µM
TGI [18]: > 100 µM
TGI [19]: > 100 µM
TGI [20]: > 100 µM
TGI [21]: > 100 µM
TGI [22]: > 100 µM
TGI [23]: > 100 µM
TGI [24]: > 100 µM
TGI [25]: > 100 µM
TGI [26]: > 100 µM
TGI [27]: > 100 µM
TGI [28]: > 100 µM
TGI [29]: > 100 µM
TGI [30]: > 100 µM
TGI [31]: > 100 µM
TGI [32]: > 100 µM
TGI [33]: > 100 µM
TGI [34]: > 100 µM
TGI [35]: > 100 µM
TGI [36]: > 100 µM
TGI [37]: > 100 µM
TGI [38]: > 100 µM
TGI [39]: > 100 µM
TGI [40]: > 100 µM
TGI [41]: > 100 µM
TGI [42]: > 100 µM
TGI [43]: > 100 µM
TGI [44]: > 100 µM
TGI [45]: > 100 µM
TGI [46]: > 100 µM
TGI [47]: > 100 µM
TGI [48]: > 100 µM
TGI [49]: > 100 µM
TGI [50]: > 100 µM
TGI [51]: > 100 µM
TGI [52]: > 100 µM
TGI [53]: > 100 µM
TGI [54]: > 100 µM

N#Cc1c(=N)cc2c3ccccc3oc3c(C#N)c(N)[nH]c1c32
TGI [55]: > 100 µM
TGI [1]: > 100 µM
TGI [2]: > 100 µM
TGI [3]: > 100 µM
TGI [4]: > 100 µM
TGI [5]: > 100 µM
TGI [6]: > 100 µM
TGI [7]: > 100 µM
TGI [8]: > 100 µM
TGI [9]: > 100 µM
TGI [10]: > 100 µM
TGI [11]: > 100 µM
TGI [12]: > 100 µM
TGI [13]: > 100 µM
TGI [14]: > 100 µM
TGI [15]: > 100 µM
TGI [16]: > 100 µM
TGI [17]: > 100 µM
TGI [18]: > 100 µM
TGI [19]: > 100 µM
TGI [20]: > 100 µM
TGI [21]: > 100 µM
TGI [22]: > 100 µM
TGI [23]: > 100 µM
TGI [24]: > 100 µM
TGI [26]: > 100 µM
TGI [27]: > 100 µM
TGI [28]: > 100 µM
TGI [29]: > 100 µM
TGI [30]: > 100 µM
TGI [56]: > 100 µM
TGI [31]: > 100 µM
TGI [32]: > 100 µM
TGI [33]: > 100 µM
TGI [34]: > 100 µM
TGI [57]: > 100 µM
TGI [35]: > 100 µM
TGI [36]: > 100 µM
TGI [37]: > 100 µM
TGI [38]: > 100 µM
TGI [39]: > 100 µM
TGI [40]: > 100 µM
TGI [41]: > 100 µM
TGI [58]: > 100 µM
TGI [42]: > 100 µM
TGI [43]: > 100 µM
TGI [44]: > 100 µM
TGI [45]: > 100 µM
TGI [46]: > 100 µM
TGI [47]: > 100 µM
TGI [48]: > 100 µM
TGI [49]: > 100 µM
TGI [50]: > 100 µM
TGI [51]: > 100 µM
TGI [52]: > 100 µM
TGI [53]: > 100 µM
TGI [54]: > 100 µM

O=[N+]([O-])/C(C(Cl)=C(Cl)Cl)=C(\Nc1cccc2ccccc12)n1nnc2ccccc21
TGI [55]: > 100 µM
TGI [1]: > 100 µM
TGI [2]: > 100 µM
TGI [3]: > 100 µM
TGI [4]: > 100 µM
TGI [5]: > 100 µM
TGI [6]: > 100 µM
TGI [7]: 98.8 µM
TGI [8]: > 100 µM
TGI [9]: > 100 µM
TGI [10]: > 100 µM
TGI [11]: > 100 µM
TGI [12]: > 100 µM
TGI [13]: > 100 µM
TGI [14]: 41 µM
TGI [15]: > 100 µM
TGI [16]: > 100 µM
TGI [18]: > 100 µM
TGI [21]: > 100 µM
TGI [23]: > 100 µM
TGI [24]: > 100 µM
TGI [26]: > 100 µM
TGI [27]: > 100 µM
TGI [28]: > 100 µM
TGI [29]: > 100 µM
TGI [30]: > 100 µM
TGI [31]: > 100 µM
TGI [32]: > 100 µM
TGI [33]: > 100 µM
TGI [34]: > 100 µM
TGI [57]: > 100 µM
TGI [36]: > 100 µM
TGI [37]: > 100 µM
TGI [38]: > 100 µM
TGI [39]: > 100 µM
TGI [40]: > 100 µM
TGI [41]: > 100 µM
TGI [58]: > 100 µM
TGI [42]: > 100 µM
TGI [43]: > 100 µM
TGI [44]: > 100 µM
TGI [46]: > 100 µM
TGI [47]: > 100 µM
TGI [48]: > 100 µM
TGI [49]: > 100 µM
TGI [50]: > 100 µM
TGI [51]: > 100 µM
TGI [52]: > 100 µM
TGI [53]: 79.3 µM
TGI [54]: 39.1 µM
